The assay concerns the target T1, p38 (Homo sapiens, UniProt Q16539).
T1 construct: made in house
Put plainly: Protein Kinase Assay (33P incorporation from γ-[33P]ATP into GST-ATF-2 substrate). Type of assay: biochemical. As to conditions: for inhibition at 10 µM: compound at 10 μM. The procedure:
Human non-activated p38 kinase (MW=43 kDa) was purified according to the protocol described herein. Chemicals were purchased from Calbiochem. Fluorescence characterizations were conducted using a Cary Eclipse (Varian Analytical Instruments, Walnut Creek, Calif.). Research-grade CM5 sensor chips and coupling reagents (N-ethyl-N′-dimethylaminopropylcarbodiimide (EDC) N-hydroxysuccinimide (NHS), and 1 M ethanolamine HCl, pH 8.5) were purchased from Biacore AB (Uppsala, Sweden). The biosensor analyses were conducted using a Biacore 3000 SPR instrument. The kinetic analyses were carried on a Molecular Devices spectrophotometer (Molecular Devices Corporation, CA, USA).
Protein Kinase Assay. The protein kinase activity of p38 was determined by measuring the incorporation of ^33P from γ-[^33P]ATP into the GST-ATF-2 substrate, amino acids 19-96 (Upstate, NY USA). […] Compounds were preincubated with 10 nM p38 for 20 min at 30° C.; the reactions were initiated by the addition of GST-ATF2 and ATP and incubated for 70 min at 30° C. before being stopped by the addition of 10 μL of 600 mM phosphoric acid. The phosphorylated substrate was captured on phosphocellulose 96-well plate (Millipore MAPHNOB 10), washed with 100 mM phosphoric acid, and counted in a BeckmenCoulter LS6500 liquid scintillation counter.

The mark [1] stands for this setting: compound at 3 μM, read-out: Protein Kinase (% Inhibition at 3 μM).
Where [2] appears, read: compound at 3 μM (noted beside the value in Table 1), read-out: Protein Kinase (% Inhibition).

Each structure is given as a SMILES string. Where two headings read alike, the source gives them in different places.

T1 sequence (Q16539 whole entry): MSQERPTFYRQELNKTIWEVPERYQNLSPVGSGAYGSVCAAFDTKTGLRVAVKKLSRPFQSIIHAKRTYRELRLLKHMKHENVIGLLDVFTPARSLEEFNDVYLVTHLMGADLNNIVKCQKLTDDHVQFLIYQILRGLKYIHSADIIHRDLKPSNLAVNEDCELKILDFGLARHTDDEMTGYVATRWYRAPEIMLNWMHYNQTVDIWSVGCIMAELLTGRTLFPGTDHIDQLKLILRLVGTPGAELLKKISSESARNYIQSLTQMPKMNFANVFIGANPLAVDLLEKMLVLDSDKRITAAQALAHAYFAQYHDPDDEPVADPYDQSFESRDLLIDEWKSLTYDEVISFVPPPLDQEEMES

In the case of `CC(C)(C)c1cc(NC(=O)Nc2cccc3ccccc23)c(CN2CCS(=O)(=O)CC2)s1` [Example 14, 1-[5-tert-butyl-2-(1,1-dioxo-1λ^6-thiomorpholin-4-ylmethyl)thiophen-3-yl]-3-naphthalen-1-ylurea], the inhibition (usually how much of the control response was suppressed) at 10 µM was 0 to 25%.

With `CC(C)(C)c1cc(C(=O)N2CCS(=O)(=O)CC2)c(NC(=O)NC2(c3ccccc3)CC2)s1` [Example 77, 1-[5-tert-butyl-3-(1,1-dioxo-1λ^6-thiomorpholine-4-carbonyl)thiophen-2-yl]-3-(1-phenylcyclopropyl)urea], the inhibition at 3 µM under setting [1] lay in the range of 26 to 50%.

Turning to `CC(C)(C)c1cc(NC(=O)Nc2cccc3ccccc23)c(C(=O)N2CCNC(=O)CC2)s1` [Example 50, 1-[5-tert-butyl-2-(5-oxo-[1,4]diazepane-1-carbonyl)thiophen-3-yl]-3-naphthalen-1-ylurea], the inhibition at 3 µM under setting [1] was in the range of 76 to 100%.

In the case of `CC(C)(C)c1cc(C(=O)N2CCNC(=O)CC2)c(NC(=O)Nc2ccc(C#N)cc2Cl)s1` [Example 90, 1-[5-tert-Butyl-3-(5-oxo-[1,4]diazepane-1-carbonyl)thiophen-2-yl]-3-(2-chloro-4-cyanophenyl)urea], the inhibition at 3 µM under setting [1] fell in the range of 76 to 100%.

Regarding `CC(C)(C)c1cc(C(=O)N2CCS(=O)(=O)CC2)c(NC(=O)Nc2ccc3c(c2)OC(F)(F)O3)s1` [Example 61, 1-[5-tert-butyl-3-(1,1-dioxo-1λ^6-thiomorpholine-4-carbonyl)thiophen-2-yl]-3-(2,2-difluorobenzo[1,3]dioxol-5-yl)urea], the inhibition at 3 µM under setting [1] was 76 to 100%.

For the compound `CC(C)(C)c1cc(C(=O)N2CCNS(=O)(=O)CC2)c(NC(=O)Nc2ccc(Cl)c(Cl)c2)s1` [Example 96, 1-[5-tert-Butyl-3-(1,1-dioxo-1λ^6-[1,2,5]thiadiazepane-5-carbonyl)thiophen-2-yl]-3-(3,4-dichlorophenyl)urea], the inhibition at 3 µM under setting [1] was 76 to 100%.

For the compound `CC(C)(C)c1cc(C(=O)N2CCS(=O)(=O)CC2)c(NC(=O)Nc2ccc(Cl)cc2)s1` [Example 1, 1-[5-tert-butyl-3-(1,1-dioxo-1λ^6-thiomorpholine-4-carbonyl)thiophen-2-yl]-3-(4-chlorophenyl)urea], the inhibition at 10 µM is 76 to 100%.

`CC(C)(C)c1cc(C(=O)N2CCS(=O)(=O)CC2)c(NC(=O)Nc2cnc(O)c3ccccc23)s1` [Example 85, 1-[5-tert-butyl-3-(1,1-dioxo-1λ^6-thiomorpholine-4-carbonyl)thiophen-2-yl]-3-(1-hydroxyisoquinolin-4-yl)urea]: under setting [1], the inhibition at 3 µM was 26 to 50%.

In turn, `C[C@H]1C(=O)NCCN1C(=O)c1cc(C(C)(C)C)sc1NC(=O)Nc1cccc(Cl)c1Cl` [Example 135, 1-[5-tert-Butyl-3-(2-methyl-3-oxopiperazine-1-carbonyl)thiophen-2-yl]-3-(2,3-dichlorophenyl)urea] registered an inhibition at 0.5 µM (same procedure at 0.5 μM) of 76 to 100%.

`CC(C)(C)c1cc(C(=O)N2CCNC(=O)CC2)c(NC(=O)Nc2ccc(C#N)c3ccccc23)s1` [Example 55, 1-[5-tert-butyl-3-(5-oxo-[1,4]diazepane-1-carbonyl)thiophen-2-yl]-3-(4-cyanonaphthyl)urea]: the inhibition at 3 µM under setting [1] fell in the range of 76 to 100%.

`CC(C)(C)c1cc(C(=O)N2CCNC(=O)CC2)c(NC(=O)Nc2cccc(Cl)c2)s1` [Example 54, 1-[5-tert-butyl-3-(5-oxo-[1,4]diazepane-1-carbonyl)thiophen-2-yl]-3-(3-chlorophenyl)urea]: the inhibition at 3 µM under setting [1] fell in the range of 76 to 100%.

`CC(C)(C)c1cc(C(=O)N2CCSCC2)c(NC(=O)Nc2cccc3ccccc23)s1` [Example 18, 1-[5-tert-butyl-3-(thiomorpholine-4-carbonyl)thiophen-2-yl]-3-naphthalen-1-ylurea]: the inhibition at 10 µM is 51 to 75%.

On to `CC(C)(C)c1cc(C(=O)N2CCS(=O)(=O)CC2)c(NC(=O)Nc2cccc(Cl)c2)s1` [Example 59, 1-[5-tert-butyl-3-(1,1-dioxo-1λ^6-thiomorpholine-4-carbonyl)thiophen-2-yl]-3-(3-chlorophenyl)urea], for which the inhibition at 3 µM under setting [1] was in the range of 76 to 100%.

In the case of `COc1ccc(NC(=O)Nc2sc(C(C)(C)C)cc2C(=O)N2CCS(=O)(=O)CC2)cc1Cl` [Example 62, 1-[5-tert-butyl-3-(1,1-dioxo-1λ^6-thiomorpholine-4-carbonyl)thiophen-2-yl]-3-(3-chloro-4-methoxyphenyl)urea], under setting [1], the inhibition at 3 µM was in the range of 76 to 100%.

With `CC(C)(C)c1nc(C(=O)N2CCS(=O)(=O)CC2)c(NC(=O)Nc2ccc3ccccc3c2)s1` [Example 26, 1-[2-tert-butyl-4-(1,1-dioxo-1λ^6-thiomorpholine-4-carbonyl)thiazol-5-yl]-3-naphthalen-2-ylurea], the inhibition at 10 µM fell in the range of 51 to 75%.

In the case of `CC(C)(C)c1cc(C(=O)N2CCS(=O)(=O)CC2)c(NC(=O)Nc2c[nH]c3ccccc23)s1` [Example 49, 1-[5-tert-butyl-3-(1,1-dioxo-1λ^6-thiomorpholine-4-carbonyl)thiophen-2-yl]-3-(1H-indol-3-yl)urea], the inhibition at 3 µM under setting [1] lay in the range of 51 to 75%.

`CC(C)(C)c1cc(NC(=O)Nc2cccc3ccccc23)c(C(=O)N2CCS(=O)(=O)CC2)s1` [Example 11, 1-[5-tert-butyl-2-(1,1-dioxo-1λ^6-thiomorpholine-4-carbonyl)thiophen-3-yl]-3-naphthalen-1-ylurea]: the inhibition at 10 µM lay within 76 to 100%.

Take `CC(C)(C)c1cc(C(=O)N2CCS(=O)(=O)CC2)c(NC(=O)Nc2ccc(Cl)c3ccccc23)s1` [Example 41, 1-[5-tert-butyl-3-(1,1-dioxo-1λ^6-thiomorpholine-4-carbonyl)thiophen-2-yl]-3-(4-chloronaphthalen-1-yl)urea]: the inhibition at 3 µM under setting [2] fell in the range of 76 to 100%.

Consider `CC(C)(C)c1cc(C(=O)N2CCNS(=O)(=O)CC2)c(NC(=O)Nc2ccc3c(c2)OC(F)(F)O3)s1` [Example 94, 1-[5-tert-Butyl-3-(1,1-dioxo-1λ^6-[1,2,5]thiadiazepane-5-carbonyl)thiophen-2-yl]-3-(2,2-difluorobenzo[1,3]dioxol-5-yl)urea], for which the inhibition at 3 µM under setting [1] is 76 to 100%.

Turning to `COC(=O)CC1C(=O)NCCN1C(=O)c1cc(C(C)(C)C)sc1NC(=O)Nc1cccc2ccccc12` (stereo not drawn) [Example 88, {1-[5-tert-butyl-2-(3-naphthalen-1-yl-ureido)thiophene-3-carbonyl]-3-oxo-piperazin-2-yl}-acetic acid methyl ester], under setting [1], the inhibition at 3 µM was in the range of 76 to 100%.

Consider `CC(C)(C)c1cc(C(=O)NCCS(C)(=O)=O)c(NC(=O)Nc2cccc3ccccc23)s1` [Example 45, 1-(3-(2-(Methylsulfonyl)ethylcarbamoyl)-5-tert-butylthiophen-2-yl)-3-(naphthalen-1-yl)urea], for which, under setting [1], the inhibition at 3 µM fell in the range of 76 to 100%.

`CC(C)(C)c1cc(C(=O)N2CCNS(=O)(=O)CC2)c(NC(=O)Nc2ccc3ccccc3c2)s1` [Example 38, 1-[5-tert-butyl-3-(1,1-dioxo-1λ^6-[1,2,5]thiadiazepane-5-carbonyl)thiophen-2-yl]-3-naphthalen-2-ylurea]: the inhibition at 3 µM under setting [2] was 76 to 100%.

As for `CC(C)(C)c1cc(C(=O)N2CCNC(=O)C2)c(NC(=O)Nc2ccc(Cl)cc2)s1` [Example 47, 1-[5-tert-butyl-3-(3-oxopiperazine-1-carbonyl)thiophen-2-yl]-3-(4-chloro-phenyl)urea], the inhibition at 3 µM under setting [1] was in the range of 76 to 100%.

For `CC(C)(C)c1cc(NC(=O)Nc2ccc(Cl)cc2)n(CC(=O)N2CCS(=O)(=O)CC2)n1` [Example 7, 1-{5-tert-butyl-2-[2-(1,1-dioxo-1λ^6-thiomorpholin-4-yl)-2-oxoethyl]-2H-pyrazol-3-yl}-3-(4-chlorophenyl)urea], the inhibition at 10 µM was 51 to 75%.
